≈ marks a conversion by molar mass, not a printed value.
Tests used:
Aleurodicus dispersus [1] = assay: Insecticidal activity against third-instar nymph stage of Aleurodicus dispersus in guava plant leaves assessed as mortality at 4 mg/l measured after 6 days in presence of 10^8 Beauveria bassiana conidial suspension under laboratory conditions (reference value: 32.8 +/-2.39%); format: functional; settings: 144 h
Beauveria bassiana [2] = assay: Effect on Beauveria bassiana Bb-N1 conidial germination at 10 mg/L measured at 27 +/-2 degC after 24 hr (reference value: 94.85 +/-2.13%); format: ADME, organism-based; settings: in vivo
Aleurodicus dispersus [3] = assay: Insecticidal activity against third-instar nymph stage of Aleurodicus dispersus in guava plant leaves assessed as mortality at 2 mg/L applied via hand sprayer measured after 9 days in presence of 10^8 Beauveria bassiana conidial suspension under field conditions (reference value: 42.3 +/-3.58%); format: functional; settings: 216 h
Aleurodicus dispersus [4] = assay: Insecticidal activity against third-instar nymph stage of Aleurodicus dispersus in guava plant leaves assessed as mortality at 8 mg/L applied via hand sprayer measured after 6 days in presence of 10^8 Beauveria bassiana conidial suspension under field conditions (reference value: 26.9 +/-3.04%); format: functional; settings: 144 h
Aleurodicus dispersus [5] = assay: Insecticidal activity against third-instar nymph stage of Aleurodicus dispersus in guava plant leaves assessed as mortality at 2 mg/l measured after 6 days under laboratory conditions (reference value: 3%); format: functional; settings: 144 h
Aleurodicus dispersus [6] = assay: Insecticidal activity against third-instar nymph stage of Aleurodicus dispersus in guava plant leaves assessed as mortality at 2 mg/L applied via hand sprayer measured after 9 days under field conditions (reference value: 4%); format: functional; settings: 216 h
Aleurodicus dispersus [7] = assay: Insecticidal activity against third-instar nymph stage of Aleurodicus dispersus in guava plant leaves assessed as mortality at 4 mg/L applied via hand sprayer measured after 9 days in presence of 10^8 Beauveria bassiana conidial suspension under field conditions (reference value: 42.3 +/-3.58%); format: functional; settings: 216 h
Beauveria bassiana [8] = assay: Effect on Beauveria bassiana Bb-N1 conidial germination at 8 mg/L measured at 27 +/-2 degC after 24 hr (reference value: 94.85 +/-2.13%); format: ADME, organism-based; settings: in vivo
Aleurodicus dispersus [9] = assay: Insecticidal activity against third-instar nymph stage of Aleurodicus dispersus in guava plant leaves assessed as mortality at 8 mg/l measured after 6 days under laboratory conditions (reference value: 3%); format: functional; settings: 144 h
Aleurodicus dispersus [10] = assay: Insecticidal activity against third-instar nymph stage of Aleurodicus dispersus in guava leaves assessed as mortality at 40 mg/l treated for 15 s measured at 27 +/-2 degC after 24 hr (reference value: 2%); format: functional
Aleurodicus dispersus [11] = assay: Insecticidal activity against third-instar nymph stage of Aleurodicus dispersus in guava leaves assessed as mortality treated for 15 s measured at 27 +/-2 degC after 24 hr; format: functional
Aleurodicus dispersus [12] = assay: Insecticidal activity against third-instar nymph stage of Aleurodicus dispersus in guava plant leaves assessed as mortality at 8 mg/L applied via hand sprayer measured after 6 days under field conditions (reference value: 3.5%); format: functional; settings: 144 h
Beauveria bassiana [13] = assay: Effect on Beauveria bassiana Bb-N1 conidial production at <8 mg/L measured at 27 +/-2 degC after 10 days; format: ADME, organism-based; settings: in vivo, 240 h
Aleurodicus dispersus [14] = assay: Insecticidal activity against third-instar nymph stage of Aleurodicus dispersus in guava leaves assessed as mortality at 2.5 mg/l treated for 15 s measured at 27 +/-2 degC after 24 hr (reference value: 2%); format: functional
Aleurodicus dispersus [15] = assay: Insecticidal activity against third-instar nymph stage of Aleurodicus dispersus in guava plant leaves assessed as mortality at 2 mg/L applied via hand sprayer measured after 6 days under field conditions (reference value: 3.5%); format: functional; settings: 144 h
Aleurodicus dispersus [16] = assay: Insecticidal activity against third-instar nymph stage of Aleurodicus dispersus in guava plant leaves assessed as mortality at 4 mg/L applied via hand sprayer measured after 6 days under field conditions (reference value: 3.5%); format: functional; settings: 144 h
Aleurodicus dispersus [17] = assay: Insecticidal activity against third-instar nymph stage of Aleurodicus dispersus in guava plant leaves assessed as mortality at 8 mg/l measured after 3 days in presence of 10^8 Beauveria bassiana conidial suspension under laboratory conditions (reference value: 24.3 +/-1.03%); format: functional; settings: 72 h
Aleurodicus dispersus [18] = assay: Insecticidal activity against third-instar nymph stage of Aleurodicus dispersus in guava plant leaves assessed as mortality at 4 mg/L applied via hand sprayer measured after 3 days under field conditions (reference value: 3%); format: functional; settings: 72 h
Aleurodicus dispersus [19] = assay: Insecticidal activity against third-instar nymph stage of Aleurodicus dispersus in guava leaves assessed as mortality at 5 mg/l treated for 15 s measured at 27 +/-2 degC after 24 hr (reference value: 2%); format: functional
Aleurodicus dispersus [20] = assay: Insecticidal activity against third-instar nymph stage of Aleurodicus dispersus in guava plant leaves assessed as mortality at 8 mg/l measured after 6 days in presence of 10^8 Beauveria bassiana conidial suspension under laboratory conditions (reference value: 32.8 +/-2.39%); format: functional; settings: 144 h
Aleurodicus dispersus [21] = assay: Insecticidal activity against third-instar nymph stage of Aleurodicus dispersus in guava plant leaves assessed as mortality at 4 mg/L applied via hand sprayer measured after 9 days under field conditions (reference value: 4%); format: functional; settings: 216 h
Aleurodicus dispersus [22] = assay: Insecticidal activity against third-instar nymph stage of Aleurodicus dispersus in guava plant leaves assessed as mortality at 8 mg/L applied via hand sprayer measured after 9 days under field conditions (reference value: 4%); format: functional; settings: 216 h
Aleurodicus dispersus [23] = assay: Insecticidal activity against third-instar nymph stage of Aleurodicus dispersus in guava plant leaves assessed as mortality at 4 mg/l measured after 9 days under laboratory conditions (reference value: 3%); format: functional; settings: 216 h
Aleurodicus dispersus [24] = assay: Insecticidal activity against third-instar nymph stage of Aleurodicus dispersus in guava leaves assessed as mortality at 10 mg/l treated for 15 s measured at 27 +/-2 degC after 48 hr (reference value: 3%); format: functional
Aleurodicus dispersus [25] = assay: Insecticidal activity against third-instar nymph stage of Aleurodicus dispersus in guava leaves assessed as mortality at 20 mg/l treated for 15 s measured at 27 +/-2 degC after 24 hr (reference value: 2%); format: functional
Aleurodicus dispersus [26] = assay: Insecticidal activity against third-instar nymph stage of Aleurodicus dispersus in guava plant leaves assessed as mortality at 8 mg/l measured after 3 days under laboratory conditions (reference value: 2%); format: functional; settings: 72 h
Aleurodicus dispersus [27] = assay: Insecticidal activity against third-instar nymph stage of Aleurodicus dispersus in guava plant leaves assessed as mortality at 2 mg/l measured after 9 days under laboratory conditions (reference value: 3%); format: functional; settings: 216 h
Aleurodicus dispersus [28] = assay: Insecticidal activity against third-instar nymph stage of Aleurodicus dispersus in guava plant leaves assessed as mortality at 8 mg/L applied via hand sprayer measured after 3 days under field conditions (reference value: 3%); format: functional; settings: 72 h
Aleurodicus dispersus [29] = assay: Insecticidal activity against third-instar nymph stage of Aleurodicus dispersus in guava plant leaves assessed as mortality at 2 mg/l measured after 9 days in presence of 10^8 Beauveria bassiana conidial suspension under laboratory conditions (reference value: 45.7 +/-3.18%); format: functional; settings: 216 h

In the case of `CC1(C)[C@H](C=C(Cl)Cl)[C@H]1C(=O)O[C@@H](C#N)c1cccc(Oc2ccccc2)c1` [BETA-CYPERMETHRIN], the mortality at 4 µg/mL (Aleurodicus dispersus [1]) is reported as 77.6%, the germination rate (Beauveria bassiana [2]) is reported as 89.18% and the mortality at 2 µg/mL (Aleurodicus dispersus [3]) is reported as 54.2%. The mortality at 8 µg/mL (Aleurodicus dispersus [4]) was 62.2%, the mortality at 2 µg/mL (Aleurodicus dispersus [5]) was 28.7% and the mortality at 2 µg/mL (Aleurodicus dispersus [6]) was 20.9%. The mortality at 4 µg/mL (Aleurodicus dispersus [7]) was 62.4%, the germination rate (Beauveria bassiana [8]) was 92.31% and the mortality at 8 µg/mL (Aleurodicus dispersus [9]) was 39.3%. The mortality at 40 µg/mL (Aleurodicus dispersus [10]) was 46.6%, the LC95 (Aleurodicus dispersus [11]) was 1551.51 µg/mL (≈ 3730 µM) and the LC50 (Aleurodicus dispersus [11]; Aleurodicus dispersus, Nymph stage, 24 h) was 50 µg/mL (≈ 120 µM). For the same compound, the mortality at 8 µg/mL (Aleurodicus dispersus [12]) was 29.4%, the Activity (Beauveria bassiana [13]) was “Non-toxic” and the mortality at 2.5 µg/mL (Aleurodicus dispersus [14]) was 9.1%. It also gave a mortality at 2 µg/mL (Aleurodicus dispersus [15]) of 20.9%, a mortality at 4 µg/mL (Aleurodicus dispersus [16]) of 26.7% and a mortality at 8 µg/mL (Aleurodicus dispersus [17]) of 76.1%. It also gave a mortality at 4 µg/mL (Aleurodicus dispersus [18]) of 26.7%, a mortality at 5 µg/mL (Aleurodicus dispersus [19]) of 16.2% and a mortality at 8 µg/mL (Aleurodicus dispersus [20]) of 80.6%. It also gave a mortality at 4 µg/mL (Aleurodicus dispersus [21]) of 26.7%, a mortality at 8 µg/mL (Aleurodicus dispersus [22]) of 29.4% and a mortality at 4 µg/mL (Aleurodicus dispersus [23]) of 34.1%. It also gave a mortality at 10 µg/mL (Aleurodicus dispersus [24]) of 47.8%, a mortality at 20 µg/mL (Aleurodicus dispersus [25]) of 34.5% and a mortality at 8 µg/mL (Aleurodicus dispersus [26]) of 39.3%. The mortality at 2 µg/mL (Aleurodicus dispersus [27]) was 28.7%, the mortality at 8 µg/mL (Aleurodicus dispersus [28]) was 29.4% and the mortality at 2 µg/mL (Aleurodicus dispersus [29]) was 75.3%.

Reference: ChEMBL document CHEMBL3046835, “Insecticidal activity influence of beta-cypermethrin on the pathogenicity of Beauveria bassiana against Aleurodicus disperses” (Crop Prot, 2013)
